pIC50: −log10 of the molar value.

The target in one assay is T1, Flag/GST-tagged recombinant human B-Raf (Homo sapiens, UniProt P15056).
T1 construct: Flag; GST; made in house; host or cells: Sf9 insect cells (B-Raf); E. coli (MEK1-GST)
T1 sequence (P15056 whole entry): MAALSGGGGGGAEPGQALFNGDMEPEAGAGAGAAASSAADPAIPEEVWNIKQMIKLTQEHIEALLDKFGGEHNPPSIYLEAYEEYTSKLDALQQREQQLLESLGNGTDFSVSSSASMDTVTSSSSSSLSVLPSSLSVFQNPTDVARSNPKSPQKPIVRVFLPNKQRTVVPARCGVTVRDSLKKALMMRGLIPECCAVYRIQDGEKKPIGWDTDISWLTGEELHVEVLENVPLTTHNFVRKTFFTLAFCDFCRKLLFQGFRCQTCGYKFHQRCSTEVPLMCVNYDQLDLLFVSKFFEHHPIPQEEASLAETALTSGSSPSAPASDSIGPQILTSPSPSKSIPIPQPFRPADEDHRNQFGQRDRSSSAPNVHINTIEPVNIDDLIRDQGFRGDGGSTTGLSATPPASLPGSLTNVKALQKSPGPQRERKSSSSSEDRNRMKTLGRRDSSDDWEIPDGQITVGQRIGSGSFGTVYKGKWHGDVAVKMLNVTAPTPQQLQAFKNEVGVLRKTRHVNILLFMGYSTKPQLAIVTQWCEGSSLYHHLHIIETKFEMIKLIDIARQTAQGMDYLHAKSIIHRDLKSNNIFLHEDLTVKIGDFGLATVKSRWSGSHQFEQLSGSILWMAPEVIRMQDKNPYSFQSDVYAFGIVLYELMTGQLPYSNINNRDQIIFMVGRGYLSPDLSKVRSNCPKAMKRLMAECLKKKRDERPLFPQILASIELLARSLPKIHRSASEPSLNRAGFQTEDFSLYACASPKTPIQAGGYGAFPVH
Nature of the assay: B-Raf Kinase to MEK1 ELISA. The class given is biochemical.
Settings: not given
The procedure: B-Raf Kinase to MEK1 ELISA
B-Raf1 Kinase Assay Procedure: B-Raf-1 is used to phosphorylate GST-MEK1.
B-Raf Assay Stock Solutions:
1. Assay Dilution Buffer (ADB): 20 mM MOPS, pH 7.2, 25 mM β-glycerol phosphate, 5 mM EGTA, 1 mM sodium orthovanadate, 1 mM dithiothreitol, 0.01% Triton X-100.
2. Magnesium/ATP Cocktail: ADB solution (minus Triton X-100) plus 200 μM cold ATP and 40 mM magnesium chloride.
4. Active Kinase: Active B-Raf: used at 0.2 nM per assay point.
8. Anti pMEK Ab (Upstate)
9. Anti-rabbit Ab/Europium conjugate (Wallac)
1. Add 25 μl of ADB containing B-Raf and Mek per assay (i.e. per well of a 96 well plate)
2. Add 25 μl of 0.2 mM ATP and 40 mM magnesium chloride in Magnesium/ATP Cocktail.
3. Incubate for 45 minutes at RT with occasional shaking.
4. Transfer this mixture to an anti-GST Ab coated 96 well plate (Nunc Immunosorb plates coated o/n with a-GST. Plate freshly washed 3× with TBS-T before use.
5. Incubate o/n at 30° C. in cold room.
6. Wash 3× with TBST, add Anti-Phospho MEK1 (1:1000, dilution depends upon lot)
7. Incubate for 60 minutes at RT in a shaking incubator
8. Wash 3× with TBST, add Anti-rabbit Ab/Europium conjugate (Wallac) (1:500, dilution depends upon lot)
9. Incubate for 60 minutes at RT on a platform shaker.
10. Wash plate 3× with TBS-T
11. Add 100 μl of Wallac Delfia Enhancement Solution and shake for 10 minutes.
12. Read plates in Wallac Victor model Plate Reader.
13. Collect data analyze in Excel for single point and IC50 determinations.
The % inhibition was determined for each compound concentration.
(ELISA stands for enzyme-linked immunosorbent assay.)
In general, pIC50 refers to the negative decadic logarithm of the IC50, by convention in mol/L. With `O=C(Nc1cccc(-c2ncnc3sc(-c4ccncc4)cc23)c1)c1cccc(C(F)(F)F)c1` [Compound 42, N-[3-(6-pyridin-4-ylthieno[2,3-d]pyrimidin-4-yl)phenyl]-3-(trifluoromethyl)benzamide], the pIC50 was 7.10.

Consider `O=C(Nc1cccc(-c2ncnc3sc(-c4ccncc4)cc23)c1)c1ccc(Cl)c(C(F)(F)F)c1` [Compound 40, 4-chloro-N-[3-(6-pyridin-4-ylthieno[2,3-d]pyrimidin-4-yl)phenyl]-3-(trifluoromethyl)benzamide], for which the pIC50 was 5.45.

Take `O=C(Nc1cccc(-c2ncnc3sc(-c4ccncc4)cc23)c1)Nc1ccc(F)c(C(F)(F)F)c1` [Compound 36, N-[4-fluoro-3-(trifluoromethyl)phenyl]-N′-[3-(6-pyridin-4-ylthieno[2,3-d]pyrimidin-4-yl)phenyl]urea]: the pIC50 was 5.63.

Regarding `CN(C)CCCn1c(-c2ccncc2)cc2c(-c3cccc(NC(=O)c4cccc(C(F)(F)F)c4)c3)ncnc21` [Compound 109, N-(3-{7-[3-(dimethylamino)propyl]-6-pyridin-4-yl-7H-pyrrolo[2,3-d]pyrimidin-4-yl}phenyl)-3-(trifluoromethyl)benzamide], the pIC50 is 7.18.

The same assay, now with this note: phosphorylation of GST-MEK1 by B-Raf (0.2 nM), phospho-MEK1 antibody/Europium readout; compound concentrations from 1 μM to 3 nM or 0.1 μM to 300 pm in half log dilutions; read-out: IC50.
`CC(=O)c1cccc(-c2cc3c(-c4cccc(NC(=O)c5cccc(C(F)(F)F)c5)c4)ncnc3s2)c1` [Compound 81, N-{3-[6-(3-acetylphenyl)thieno[2,3-d]pyrimidin-4-yl]phenyl}-3-(trifluoromethyl)benzamide]: the pIC50 is 5.49.

Regarding `CC(=O)Nc1cccc(-c2cc3c(-c4cccc(NC(=O)c5cccc(C(F)(F)F)c5)c4)ncnc3s2)c1` [Compound 72, N-(3-{6-[3-(acetylamino)phenyl]thieno[2,3-d]pyrimidin-4-yl}phenyl)-3-(trifluoromethyl)benzamide], the pIC50 was 5.68.

Regarding `CC(=O)Nc1ccc(-c2cc3c(-c4cccc(NC(=O)c5cccc(C(F)(F)F)c5)c4)ncnc3s2)cc1` [Compound 68, N-(3-{6-[4-(acetylamino)phenyl]thieno[2,3-d]pyrimidin-4-yl}phenyl)-3-(trifluoromethyl)benzamide], the pIC50 is 6.06.

These data come from patent publication US20090118276A1, “THIENOPYRIMIDINES, THIENOPYRIDINES, AND PYRROLOPYRIMIDINES AS B-RAF INHIBITORS” (priority 2007, published 2009).
